Data on one molecule can be found in patent publication US20240398767A1, “INHIBITORS OF THE MTDH-SND1 PROTEIN COMPLEX FOR CANCER THERAPY” (The Trustees of Princeton University, priority 2021, published 2024).

Experiment [1] has as its system SCP28 tumors with MTDH or SND1 KD. Put plainly: SCP28 tumor models with MTDH or SND1 KD. The experiment is classed as in vivo, NSG females. On the procedure: FIG. 17A, Indicated cells were injected into NSG females orthotopically and followed by vehicle or C26-A6 treatment after 2 weeks. Tumor volumes were measured 8 weeks after injection. Vehicle, n=6 mice; C26-A6, n=6 mice.
FIG. 17B, Spontaneous lung metastasis of the mice in FIG. 17A were assessed by BLI (right). Size bar, 5 mm. Vehicle, n=5 lungs; C26-A6, n=6 lungs.
FIG. 17C, The SND1 and MTDH expression of the cells used in FIG. 17A was evaluated.
Next, to further validate that the anti-tumor effect of C26-A6 depends on its on-target effects by disrupting MTDH-SND1 complex, PyMT; UBC-Cre^ERT+/−;Mtdh^fl/fl tumor cells with Mtdh depletion or with endogenous Snd1 KD were employed for the similar assay as in FIG. 5-1a. […] Likewise, MTDH or SND1 KD abolished the C26-A6 treatment-induced primary tumor inhibition or metastasis reduction in SCP28 tumor models (Extended Data FIG. 10-1a-c).

The test system of experiment [2] is PyMT tumor immune microenvironment. Put plainly: Immune cell profiling of orthotopic PyMT tumors and lungs by flow cytometry. The experiment is classed as in vivo, FVB females. As to conditions: six weeks after treatment. An excerpt:
FIGS. 35A-35C show C26-A6 combined with anti-PD-1 treatment reshapes the tumor immune microenvironment. For FIGS. 35A-35C, 100 k PyMT tumor cells were orthotopically injected into the mammary glands of FVB females. The mice were randomized and divided into three groups when primary tumors were established, followed by vehicle, C26-A6, or C26-A6+anti-PD-1 treatment. Six weeks after treatment, primary tumors and lung with metastatic lesions were collected for flow analysis with indicated antibodies. Anti-PD-1, 200 μg/mouse i.p. injection, twice per week for the first week and then once per week after that; C26-A6, 15 mg/kg i.v. injection, 5 days per week. n=6 mice per group. Data represent mean±SEM. Significance determined by one-way ANOVA analysis with Dunnett's test for multiple comparisons.
FIG. 35A, Percentages of CD11b^+F4/80^+, Ly6G^lowLy6C^high, Ly6G^highLy6C^low, CD3-NK1.1^+ in CD45^+ population and percentage of CD4^+FOXP3^+ in CD3^+ population are shown.
FIG. 35B, Percentages of GITR^+LAG-3^+ in CD8^+ population are shown.
Flow cytometry. Dissociated tumors or lungs were dissected and prepared as previously described^10. […]. Organoids were sequentially suspended with 0.25% trypsin-EDTA for 1.5 min, 5 mg/ml Dispase (Invitrogen), and 0.1 mg/ml DNase (Sigma) for 5 min, and 0.64% ammonium chloride for 5 min at 37° C. before filtration through a 40 μm nylon cell strainer. Tumor or lung cell suspensions were incubated with an antibody cocktail in FACS buffer (PBS+3% BSA) for 30 minutes at 4° C., washed, and resuspended in FACS buffer for flow analysis. Isotype controls were used to assess specificity of antibody labeling. […] Samples were analyzed with BD FACSDiva v6 software and data was processed with FlowJo v10 software. […]
On the technique in general: A flow cytometer gives signals particle by particle.

The structures appear in SMILES notation.

For the molecule `COc1ccc(Cl)cc1S(=O)(=O)Nc1cccn2nc(C)nc12` [Analog C26-A6], the “C26-A6 treatment-induced primary tumor inhibition or metastasis reduction” value in experiment [1] is given as “abolished”. Also, in experiment [2], the “CD8+ T cell exhaustion (GITR+LAG-3+ in CD8+ population)” value is “elevated CD8^+ T cell exhaustion”; the “infiltration of Ly6GhighLy6Clow sub-population of MDSCs” value was “reduced”; the “infiltration of Ly6GlowLy6Chigh sub-population of MDSCs” value is reported as “significantly enhanced”; the “populations of macrophages, NK cells and regulatory T cells” value is “not significantly altered”.
